Legend:
Alternaria alternata = assay: In vitro-Test with Alternaria alternata; format: cell-based
Septoria tritici [1] = assay: In vitro-Test with Septoria tritici; format: cell-based; details: compound alone
Venturia inaequalis = assay: In vivo preventive test on Venturia (apples); details: Table E1, 10 days after inoculation
Experimental: The test is evaluated 10 days after the inoculation.

Puccinia triticina = assay: In vivo preventive Puccinia triticina test (wheat); details: 8 days after inoculation
Experimental: After the spray coating has been dried, the plants are sprayed with a spore suspension of Puccinia triticina.
The test is evaluated 8 days after the inoculation.

Septoria tritici [2] = assay: In vivo preventive Septoria tritici test (wheat); details: 21 days after inoculation
Experimental: After the spray coating has been dried, the plants are sprayed with a spore suspension of Septoria tritici.
The test is evaluated 21 days after the inoculation.

Fusarium culmorum = assay: In vitro-Test with Fusarium culmorum; format: cell-based; details: 0.2 ppm
Pyrenophora teres = assay: In vitro-Test with Pyrenophora teres; format: cell-based; details: 0.2 ppm
Ustilago avenae = assay: In vitro-Test with Ustilago avenae; format: cell-based; details: compound alone
[3] = tested on: fish (Danio rerio) embryos; assay: In vivo ecotoxicity screening test on fish (Danio rerio); details: active compound alone; fish embryos, 96 h, 28.5° C.
Experimental: with ECxi the Effect Concentration (EC) of each chemical i (in ppm) causing x % effect on the ecotoxicity test endpoint.
For each compound combination, the predicted ECx value is calculated. It is then compared to an experimentally measured value. The ratio of predicted versus measured effect for the combination (thereafter called the Model Deviation Ratio or MDR) is then calculated.
The environmental effect of the compound combinations was measured experimentally in laboratory ecotoxicity screening studies with fish (Danio rerio). […] Mortality was recorded after 96 h for each tested concentration and a reference control. […] Then, the MDR values were calculated.
• Solvent: 0.5% by weight dimethyl sulfoxide
This concentrate is then diluted with water to the desired a.i. concentration, leading to a maximal solvent concentration of 0.5% by weight. The compounds alone and the combinations were tested for five increasing concentrations between 0.01 and 1000 ppm a.i., (e.g. 0.1, 1.0, 10 and 100 ppm a.i). For the combinations, compounds A and B were mixed in a weight ratio of 5:1 to 1:5 and five increasing concentrations were tested for each ratio.

Sphaerotheca fuliginea = assay: In vivo preventive test on Sphaerotheca (cucumbers); details: Table D1, 7 days after inoculation
[4] = tested on: Blumeria graminis f.sp. hordei; assay: In vivo preventive Blumeria test (barley); details: Table F2, 7 days after inoculation
Botrytis cinerea = assay: In vitro-Test with Botrytis cinerea; format: cell-based

In the case of `CC(C)(C)[C@@H](O)[C@@H](Cc1ccc(Cl)cc1)n1cncn1` (racemic) [Example 1.015, paclobutrazol], the Efficacy % (Alternaria alternata; 1 ppm) was 0% and the Efficacy % (Septoria tritici [1]; 1 ppm) was 13%.
For `OC(Cc1ccccc1Cl)(Cn1nc[nH]c1=S)C1(Cl)CC1` (stereo not shown) [Example 1.018, prothioconazole], the “Efficacy in % found” value (Venturia inaequalis; 2.5 ppm a.i.) was 0%, the “Efficacy in % found” value (Venturia inaequalis; 5 ppm a.i.) was 30% and the “Efficacy in % found” value (Venturia inaequalis; 10 ppm a.i.) was 61%. The “Efficacy in % found” value (Puccinia triticina; 25 ppm a.i.) was 0%, the “Efficacy in % found” value (Puccinia triticina; 50 ppm a.i.) was 0% and the “Efficacy in % found” value (Puccinia triticina; 100 ppm a.i.) was 0%. For the same compound, the “Efficacy in % found” value (Puccinia triticina; Table H1, 25 ppm a.i.) was 0%, the “Efficacy in % found” value (Puccinia triticina; Table H1, 50 ppm a.i.) was 0% and the “Efficacy in % found” value (Puccinia triticina; Table H1, 100 ppm a.i.) was 0%. The “Efficacy in % found” value (Septoria tritici [2]; 25 ppm a.i.) was 0%, the “Efficacy in % found” value (Septoria tritici [2]; 50 ppm a.i.) was 14% and the “Efficacy in % found” value (Septoria tritici [2]; 100 ppm a.i.) was 43%. It also gave an Efficacy % (Alternaria alternata; 0.04 ppm) of 0%, an Efficacy % (Alternaria alternata; 0.2 ppm) of 91% and an Efficacy % (Fusarium culmorum) of 99%. It also gave an Efficacy % (Pyrenophora teres) of 22%, an Efficacy % (Ustilago avenae; 1 ppm) of 85% and an Efficacy % (Ustilago avenae; 5 ppm) of 100%. For the same compound, the “Ecotoxicity LC50-96 h found” value [3] was 3.16 ppm a.i, the “Efficacy in % found” value (Sphaerotheca fuliginea; 2.5 ppm a.i.) was 71% and the “Efficacy in % found” value (Sphaerotheca fuliginea; 5 ppm a.i.) was 96%. The “Efficacy in % found” value (Sphaerotheca fuliginea; 10 ppm a.i.) was 100%.
In the case of `CCCN(CC)CC1COC2(CCC(C(C)(C)C)CC2)O1` (stereo not shown) [Example 1.020, spiroxamine], the “Efficacy in % found” value (Venturia inaequalis; 25 ppm a.i.) was 0%, the “Efficacy in % found” value (Venturia inaequalis; 50 ppm a.i.) was 0% and the “Efficacy in % found” value (Venturia inaequalis; 100 ppm a.i.) was 14%. For the same compound, the “Efficacy in % found” value ([4]; 62.5 ppm a.i.) was 33%, the “Efficacy in % found” value ([4]; 125 ppm a.i.) was 89% and the “Efficacy in % found” value ([4]; 250 ppm a.i.) was 100%. It also gave a pest or weed control at 62.5 ppm (Puccinia triticina; Puccinia triticina, 192 h, 62.5 ppm a.i., read-out: Efficacy in % found) of 11%, a pest or weed control at 125 ppm (Puccinia triticina; Puccinia triticina, 192 h, 125 ppm a.i., read-out: Efficacy in % found) of 33% and a pest or weed control at 250 ppm (Puccinia triticina; Puccinia triticina, 192 h, 250 ppm a.i., read-out: Efficacy in % found) of 33%. It also gave a pest or weed control at 62.5 ppm (Septoria tritici [2]; Zymoseptoria tritici, 504 h, 62.5 ppm a.i., read-out: Efficacy in % found) of 0%, a pest or weed control at 125 ppm (Septoria tritici [2]; Zymoseptoria tritici, 504 h, 125 ppm a.i., read-out: Efficacy in % found) of 14% and a pest or weed control at 250 ppm (Septoria tritici [2]; Zymoseptoria tritici, 504 h, 250 ppm a.i., read-out: Efficacy in % found) of 57%. It also gave an Efficacy % (Botrytis cinerea; 4 ppm) of 7%, an Efficacy % (Botrytis cinerea; 20 ppm) of 9% and an Efficacy % (Septoria tritici [1]; 0.8 ppm) of 25%. For the same compound, the Efficacy % (Septoria tritici [1]; 4 ppm) was 34%, the Efficacy % (Ustilago avenae; 20 ppm) was 12% and the Efficacy % (Ustilago avenae; 100 ppm) was 100%. The “Ecotoxicity LC50-96 h found” value [3] was 14.81 ppm a.i, the “Efficacy in % found” value (Sphaerotheca fuliginea; 25 ppm a.i.) was 31% and the “Efficacy in % found” value (Sphaerotheca fuliginea; 50 ppm a.i.) was 37%. The “Efficacy in % found” value (Sphaerotheca fuliginea; 100 ppm a.i.) was 49%.

Reference: patent US20200008426A1, “ACTIVE COMPOUND COMBINATIONS” (BAYER AKTIENGESELLSCHAFT, priority 2017, published 2020)
